In one series the target is T1, CYP1A2 (Homo sapiens, UniProt P05177).
T1 construct: made in house; host or cells: Escherichia coli (membrane fractions)
T1 sequence (P05177 1-516): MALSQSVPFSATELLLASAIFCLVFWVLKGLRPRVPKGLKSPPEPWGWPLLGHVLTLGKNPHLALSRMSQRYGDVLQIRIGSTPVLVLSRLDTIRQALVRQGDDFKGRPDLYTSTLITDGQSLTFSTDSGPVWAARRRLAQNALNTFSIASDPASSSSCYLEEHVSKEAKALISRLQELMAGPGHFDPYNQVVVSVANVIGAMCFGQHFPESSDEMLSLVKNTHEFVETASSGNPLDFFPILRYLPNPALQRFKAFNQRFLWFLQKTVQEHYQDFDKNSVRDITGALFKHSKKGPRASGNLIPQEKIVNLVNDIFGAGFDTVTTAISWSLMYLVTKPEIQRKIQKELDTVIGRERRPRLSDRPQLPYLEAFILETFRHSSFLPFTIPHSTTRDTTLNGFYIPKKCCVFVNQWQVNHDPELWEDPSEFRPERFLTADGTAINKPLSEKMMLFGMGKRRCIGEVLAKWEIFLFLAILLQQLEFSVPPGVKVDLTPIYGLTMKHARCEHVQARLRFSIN
Briefly: Tenatoprazole oxidation by recombinant CYP1A2. As to conditions: substrate tenatoprazole 0.10 mM, 0.20 μM CYP1A2; no apparent formation. The series is classed as in vitro ADME. The procedure:
Pooled liver microsomes from human samples were obtained from ThermoFisher Scientific (Waltham, MA, USA). Recombinant human P450s were heterologously expressed in Escherichia coli with a pCW vector containing human P450 cDNA (CYP 3A4, 2C9, 2C19, 1A2, 1B1, 2E1, 2D6, and 2A6) and rat NADPH-P450 reductase (CPR). Membrane fractions expressing both P450 and CPR of E. coli were prepared as described previously and were used for the catalytic activity assays.
The reaction mixture included 0.20 μM P450, 0.40 μM CPR, and tenatoprazole (0.10 mM) in 0.25 mL of 0.10 M potassium phosphate buffer (pH 7.4). The reaction was started by adding NGS and the incubation was continued for the indicated time at 37 °C. Incubation was then stopped by adding ice-chilled ethyl acetate (0.50 mL) and omeprazole (IS) was added to a final concentration of 20 μM. The mixtures were vortexed for 2 min, centrifuged at 1000× g for 20 min, and then the organic layer was taken for drying under nitrogen gas stream. The residues were dissolved in 180 μL of HPLC mobile phase and 30 μL was injected onto a Gemini C18 column (4.6 × 150 mm, 5 μm; Phenomenex, Torrance, CA, USA). The products formed were analyzed by HPLC at A302. The HPLC profile of the authentic chemicals (i.e., tenatoprazole, tenatoprazole sulfide, and their metabolites) were used to identify the major metabolites of tenatoprazole and tenatoprazole sulfide produced by the recombinant P450s.
Figure S6. HPLC analyses of the products derived from the oxidation of tenatoprazole catalyzed by recombinant human P450s. The reaction mixture included 0.20 μM P450, 0.40 μM CPR, and 0.10 mM tenatoprazole in 0.25 mL of potassium phosphate buffer (0.10 M, pH 7.4). The reaction was started by adding an NGS at 37 °C for 60 min. (A) CYP1A2; (B) CYP1B1; (C) CYP2A6; (D) CYP2C9; (E) CYP2D6; (F) CYP2E1. The arrows with solid and broken lines indicate the retention times of 5’-OH tenatoprazole (6.6 min) and 5’-OH tenatoprazole sulfide (8.4 min), respectively.
(1 picture or pasted object on this page, not shown here)

For another series, the target named is T2, human CYP3A4 (Homo sapiens, UniProt P08684).
T2 construct: made in house; host or cells: Escherichia coli (membrane fractions)
T2 sequence (P08684 whole entry): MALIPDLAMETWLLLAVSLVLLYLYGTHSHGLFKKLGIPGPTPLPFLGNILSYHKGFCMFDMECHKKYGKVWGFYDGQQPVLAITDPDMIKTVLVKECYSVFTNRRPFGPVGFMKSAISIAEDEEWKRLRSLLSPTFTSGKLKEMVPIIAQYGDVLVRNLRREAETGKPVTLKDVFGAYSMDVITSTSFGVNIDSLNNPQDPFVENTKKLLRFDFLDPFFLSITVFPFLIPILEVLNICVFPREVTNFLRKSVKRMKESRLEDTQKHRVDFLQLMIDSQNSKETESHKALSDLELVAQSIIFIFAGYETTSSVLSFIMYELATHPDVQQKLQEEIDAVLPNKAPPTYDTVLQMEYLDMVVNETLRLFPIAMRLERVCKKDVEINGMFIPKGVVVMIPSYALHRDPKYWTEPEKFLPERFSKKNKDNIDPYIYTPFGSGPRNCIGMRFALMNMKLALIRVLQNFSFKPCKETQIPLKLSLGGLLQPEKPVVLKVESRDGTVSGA
Briefly: Steady-state kinetics of tenatoprazole oxidation by recombinant CYP3A4. The series is classed as in vitro ADME. As to conditions: for kcat of product formation: substrate tenatoprazole (1–500 μM), recombinant CYP3A4 0.20 μM, 37 °C, 5 min, label = product formed. The procedure: Pooled liver microsomes from human samples were obtained from ThermoFisher Scientific (Waltham, MA, USA). […] Membrane fractions expressing both P450 and CPR of E. coli were prepared as described previously and were used for the catalytic activity assays. […] The reaction was started by adding NGS and the incubation was continued for the indicated time at 37 °C. Incubation was then stopped by adding ice-chilled ethyl acetate (0.50 mL) and omeprazole (IS) was added to a final concentration of 20 μM. […] Phenomenex, Torrance, CA, USA). The products formed were analyzed by HPLC at […]. The HPLC profile of the authentic chemicals (i.e., tenatoprazole, tenatoprazole sulfide, and their metabolites) were used to identify the major metabolites of tenatoprazole and tenatoprazole sulfide produced by the recombinant P450s. […] The kinetic parameters (kcat and Km) were determined by using a Michaelis-Menten nonlinear regression analysis with GraphPad Prism (GraphPad Software, San Diego, CA, USA). To further characterize the nature of the metabolites, the reaction mixtures were additionally analyzed by a 6530 Quadrupole Time-of-Flight (QTOF) mass spectrometer (MS) (Agilent, Santa Clara, CA, USA) coupled with a 1290 Infinity ultra-performance liquid chromatography (UPLC) system (Agilent). […] The reaction was initiated by adding NGS at 37 °C. […] Then, the upper layer was transferred to a glass tube and dried under nitrogen stream. The residues were reconstituted in 0.30 mL acetonitrile, then 1 μL samples were injected into an LC-MS system. The analytical column was a Hypersil Gold C18 column (100 × 2.1 mm, 1.9 μm; ThermoFisher Scientific). […] A gradient program was used for HPLC separation, and the flow rate was 0.4 mL/min. […] The column and autosampler were kept at 35 °C and 4 °C, respectively, during analysis. Electrospray ionization was performed in the positive ion mode. The sheath gas flow rate was 8 L/min. The flow rate of drying gas was 12 L/min at 350 °C, and the nebulizer's temperature was set at 350 °C. The capillary voltage was 4500 V in the positive mode, and that of the fragmentor was 175 V. Data acquisition were done over a scan range from 50 m/z to 1000 m/z in the centroid mode. A reference compound (C18H18O6N3P3F24; [M+H]^+ = 922.0098) was used to correct all of the masses. Tandem mass spectrometry (MS/MS) data were acquired in profile mode via autoanalysis for structural characterization with 30 eV of the collision energy.

“And” between values parts separate entries of the source, which are not always exact repeats. Equal values may be shown once. Where only a bound is given, the exact number is not on record here.

For the compound `COc1ccc2[nH]c([S+]([O-])Cc3ncc(CO)c(OC)c3C)nc2n1` (centres unmarked) [5′-OH tenatoprazole, 5′-hydroxy tenatoprazole], on CYP1A2, the “formation rate of metabolite” value is on record as < 0.05 nmol product/min/nmol P450. Also, the “fold higher Km of CYP3A4 than CYP2C19” value at human CYP3A4 (5′-OH tenatoprazole formation from tenatoprazole) amounted to 100 fold. The “kcat of product formation” value at human CYP3A4 was 0.105 s⁻¹ and 0.105 ± 0.005 s⁻¹.
With `COc1ccc2[nH]c(S(=O)(=O)Cc3ncc(C)c(OC)c3C)nc2n1` [tenatoprazole sulfone], at CYP1A2, the “formation rate of metabolite” value was < 0.05 nmol product/min/nmol P450. Moreover, the “kcat of product formation” value at human CYP3A4 was 0.045 s⁻¹ and 0.045 ± 0.013 s⁻¹.

The values above are taken from PMC9863764, “Roles of Human Liver Cytochrome P450 Enzymes in Tenatoprazole Metabolism” (Pharmaceutics, 2022).
